As usually defined, the pIC50 is −log10 of the IC50, conventionally taken in molar units.

pIC50: −log10 of the molar value.

T1 sequence (Q13191 39-426): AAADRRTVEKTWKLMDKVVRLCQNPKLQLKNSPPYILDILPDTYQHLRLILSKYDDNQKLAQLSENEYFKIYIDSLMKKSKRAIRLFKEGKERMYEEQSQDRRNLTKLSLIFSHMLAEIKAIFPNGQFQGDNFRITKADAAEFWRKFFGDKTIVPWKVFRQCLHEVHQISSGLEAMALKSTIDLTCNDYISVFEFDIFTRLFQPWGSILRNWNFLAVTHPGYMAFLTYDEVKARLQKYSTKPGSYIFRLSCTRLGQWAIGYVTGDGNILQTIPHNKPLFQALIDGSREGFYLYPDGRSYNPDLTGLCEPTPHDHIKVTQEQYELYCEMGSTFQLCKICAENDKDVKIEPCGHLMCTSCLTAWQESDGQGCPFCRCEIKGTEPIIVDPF

The test has as its target T1, human recombinant CBL-b (human Biotin CBL-b recombinant protein a.a. 39-426) (Homo sapiens, UniProt Q13191).
T1 construct: human Biotin CBL-b recombinant protein a.a; 39-426; Biotin (biotinylated); made in house
The experiment in a line: Biochemical assay for CBL-b inhibition (ligand displacement TR-FRET). It counts as binding. Particulars: 50 nM CBL-b, 0.3 μM Bodipy FL-Probe, read-out: IC50 (CBL-b inhibition, group). Here is the method:
The inhibitory activity of the test compounds was assessed by Ligand displacement TR-FRET assay. The human recombinant CBL-b (human Biotin CBL-b recombinant protein a.a. 39-426; synthesised in-house) was diluted in enzyme assay buffer (20 mM HEPES, 150 mM NaCl, 0.01% Triton X, 0.01% BSA, 0.5 mM TCEP) in a 10 μl volume and plated in 384-well plates (Cat #781075, Greiner) to a final concentration of 50 nM. The enzyme/compound mixture was incubated at RT for 60 min. The Bodipy FL-Probe described in WO 2020/210508 (synthesized in-house) diluted in enzyme assay buffer was added to the plate and incubated for 60 min RT, the final probe concentration was 0.3 μM. After 60 min incubation, 10 μl of detection mix (Terbium Streptavidin, (Cat #PV3576, Invitrogen) diluted in 1× Lance buffer) was added and incubated for 60 min at room temperature. Time-resolved fluorescence (excitation, 320 nm; emission donor, 615 nm; emission acceptor, 665 nm) was monitored by using 2030 multilabel reader Victor5 (PerkinElmer). The IC50 (concentration for half maximal inhibition) and % maximum inhibition of the compounds were estimated by fitting the dose response data to a sigmoidal curve fitting equation using Graph pad Prism software V. 8.
(In general: TR-FRET usually uses a lanthanide donor and a delayed reading to cut background.)
Take `CC1CCC(C)N(Cc2cc(N3Cc4ccc(C5(Cc6nncn6C)COC5)cc4C3=O)nc(C(F)(F)F)c2)C1` (single isomer, unassigned) [Compound 139]: the negative logarithm of the IC50 (pIC50) was 5.30 to 6.52.
For `CC1CCC(C)N(Cc2cc(N3Cc4ccc(C5(Cc6nncn6C)COC5)cc4C3=O)nc(C(F)(F)F)c2)C1` (single isomer, unassigned) [Compound 140] the value was 5.30 to 6.52.
Turning to `CC1CCC(C)N(Cc2cc(N3Cc4ccc(C5(Cc6nncn6C)COC5)cc4C3=O)nc(C(F)(F)F)c2)C1` (single isomer, unassigned) [Compound 141], the pIC50 is over 7.10.
The result for `CC1CCC(C)N(Cc2cc(N3Cc4ccc(C5(Cc6nncn6C)COC5)cc4C3=O)nc(C(F)(F)F)c2)C1` (single isomer, unassigned) [Compound 142] reads 5.30 to 6.52.
For `C[C@H]1CCCN(Cc2cc(Cl)nc(N3Cc4ccc([C@@H](Cc5nncn5C)C(F)(F)F)cc4C3=O)c2)C1` (single isomer, unassigned) [Compound 180] the value was 6.52 to 7.10; for `Cn1cnnc1CC1(c2ccc3c(c2)C(=O)N(c2cc(CNC4CCCC4O)cc(Cl)n2)C3)COC1` (single isomer, unassigned) [Compound 209, 2-(6-Chloro-4-(((2-hydroxycyclopentyl)amino)methyl)pyridin-2-yl)-6-(3-((4-methyl-4H-1,2,4-triazol-3-yl)methyl)oxetan-3-yl)isoindolin-1-one], over 7.10; for `C[C@@H](NCc1cscn1)c1cc(Cl)nc(N2Cc3ccc(C4(Cc5nncn5C)COC4)cc3C2=O)c1` (single isomer, unassigned) [Compound 217], 6.52 to 7.10.
For `C[C@@H](NC[C@H]1CCCO1)c1cc(Cl)nc(N2Cc3ccc(C4(Cc5nncn5C)COC4)cc3C2=O)c1` (single isomer, unassigned) [Compound 220] the value was 6.52 to 7.10; for `C[C@@H](NCc1ccccn1)c1cc(Cl)nc(N2Cc3ccc(C4(Cc5nncn5C)COC4)cc3C2=O)c1` (single isomer, unassigned) [Compound 241], 5.30 to 6.52; for `C[C@H](NCc1ccccn1)c1cc(Cl)nc(N2Cc3ccc(C4(Cc5nncn5C)COC4)cc3C2=O)c1` (single isomer, unassigned) [Compound 242], 6.52 to 7.10.
As to `Cn1cnnc1C[C@]1(c2ccc3c(c2)C(=O)N(c2cc(CNCC4CCC4)cc(Cl)n2)C3)C[C@@H](C#N)C1` (single isomer, unassigned) [Compound 245], the negative logarithm of the IC50 (pIC50) is 6.52 to 7.10.
With `C[C@H]1CCCN(Cc2cc(N3CCCC3)cc(N3Cc4ccc(C5(Cc6nncn6C)COC5)cc4C3=O)c2)C1` [Compound 21, (S)-6-(3-((4-Methyl-4H-1,2,4-triazol-3-yl)methyl)oxetan-3-yl)-2-(3-((3-methyl-piperidin-1-yl)methyl)-5-(pyrrolidin-1-yl)phenyl)isoindolin-1-one], the pIC50 is 5.30 to 6.52.
The result for `Cc1cc(CNCC(F)(F)F)cc(N2Cc3ccc(C4(Cc5nncn5C)COC4)cc3C2=O)c1` [Compound 22, 6-(3-((4-Methyl-4H-1,2,4-triazol-3-yl)methyl)oxetan-3-yl)-2-(3-methyl-5-(((2,2,2-trifluoroethyl)amino)methyl)phenyl)isoindolin-1-one] reads 5.30 to 6.52; that for `Cn1cnnc1CC1(c2ccc3c(c2)C(=O)N(c2cc(CN4CCC5(CCCO5)CC4)cc(C(F)(F)F)n2)C3)COC1` [Compound 32, 2-(4-((1-Oxa-8-azaspiro[4.5]decan-8-yl)methyl)-6-(trifluoromethyl)pyridin-2-yl)-6-(3-((4-methyl-4H-1,2,4-triazol-3-yl)methyl)oxetan-3-yl)isoindolin-1-one], 5.30 to 6.52.
Consider `Cn1cnnc1CC1(c2ccc3c(c2)C(=O)N(c2cc(C(=O)N4CC[C@H](O)C4)cc(C(F)(F)F)n2)C3)COC1` [Compound 36, (S)-2-(4-(3-Hydroxypyrrolidine-1-carbonyl)-6-(trifluoromethyl)pyridin-2-yl)-6-(3-((4-methyl-4H-1,2,4-triazol-3-yl)methyl)oxetan-3-yl)isoindolin-1-one], for which the pIC50 was 5.30 to 6.52.
On to `Cn1cnnc1CC1(c2ccc3c(c2)C(=O)N(c2cc(CN4CCC(C(F)(F)F)CC4)cc(C(F)(F)F)n2)C3)COC1` [Compound 38, 6-(3-((4-Methyl-4H-1,2,4-triazol-3-yl)methyl)oxetan-3-yl)-2-(6-(trifluoro-methyl)-4-((4-(trifluoromethyl)piperidin-1-yl)methyl)pyridin-2-yl)isoindolin-1-one], for which the negative-log IC50 (pIC50) was 5.30 to 6.52.
The result for `Cn1cnnc1CC1(c2ccc3c(c2)C(=O)N(c2cc(CN4CCC(O)CC4)cc(C(F)(F)F)n2)C3)COC1` [Compound 43, 2-(4-((4-Hydroxypiperidin-1-yl)methyl)-6-(trifluoromethyl)pyridin-2-yl)-6-(3-((4-methyl-4H-1,2,4-triazol-3-yl)methyl)oxetan-3-yl)isoindolin-1-one] reads 5.30 to 6.52; that for `Cn1cnnc1CC1(c2ccc3c(c2)C(=O)N(c2cc(CN4CCC5(CCCO5)C4)cc(C(F)(F)F)n2)C3)COC1` (centres unmarked) [Compound 50, 2-(4-((1-Oxa-7-azaspiro[4.4]nonan-7-yl)methyl)-6-(trifluoromethyl)pyridin-2-yl)-6-(3-((4-methyl-4H-1,2,4-triazol-3-yl)methyl)oxetan-3-yl)isoindolin-1-one], 5.30 to 6.52; that for `Cc1nccn1Cc1cc(N2Cc3ccc(C4(Cc5nncn5C)COC4)cc3C2=O)nc(C(F)(F)F)c1` [Compound 54, 2-(4-((2-Methyl-1H-imidazol-1-yl)methyl)-6-(trifluoromethyl)pyridin-2-yl)-6-(3-((4-methyl-4H-1,2,4-triazol-3-yl)methyl)oxetan-3-yl)isoindolin-1-one], 5.30 to 6.52.
The result for `Cn1cnnc1CC1(c2ccc3c(c2)C(=O)N(c2cc(CN4CC5(COC5)C4)cc(C(F)(F)F)n2)C3)COC1` [Compound 55, 2-(4-((2-Oxa-6-azaspiro[3.3]heptan-6-yl)methyl)-6-(trifluoromethyl)pyridin-2-yl)-6-(3-((4-methyl-4H-1,2,4-triazol-3-yl)methyl)oxetan-3-yl)isoindolin-1-one] reads 5.30 to 6.52.
For `CN1CCN(Cc2cc(N3Cc4ccc(C5(Cc6nncn6C)COC5)cc4C3=O)nc(C(F)(F)F)c2)CC1=O` [Compound 63, 2-(4-((4-Methyl-3-oxopiperazin-1-yl)methyl)-6-(trifluoromethyl)pyridin-2-yl)-6-(3-((4-methyl-4H-1,2,4-triazol-3-yl)methyl)oxetan-3-yl)isoindolin-1-one] the value was 6.52 to 7.10; for `Cc1cncn1Cc1cc(N2Cc3ccc(C4(Cc5nncn5C)COC4)cc3C2=O)nc(C(F)(F)F)c1` [Compound 69, 2-(4-((5-Methyl-1H-imidazol-1-yl)methyl)-6-(trifluoromethyl)pyridin-2-yl)-6-(3-((4-methyl-4H-1,2,4-triazol-3-yl)methyl)oxetan-3-yl)isoindolin-1-one], 5.30 to 6.52.
For `Cc1cn(Cc2cc(N3Cc4ccc(C5(Cc6nncn6C)COC5)cc4C3=O)nc(C(F)(F)F)c2)cn1` [Compound 70, 2-(4-((4-Methyl-1H-imidazol-1-yl)methyl)-6-(trifluoromethyl)pyridin-2-yl)-6-(3-((4-methyl-4H-1,2,4-triazol-3-yl)methyl)oxetan-3-yl)isoindolin-1-one], the negative-log IC50 (pIC50) is 5.30 to 6.52.

The values are drawn from patent publication US20260226073A1 (AURIGENE ONCOLOGY LIMITED, priority 2023, published 2026).
